These results are taken from patent US12577267B2, “Pyrimidine compounds for use as MAP4K1 inhibitors” (GLENMARK SPECIALITY S.A., priority 2021, dated 2026).

Where a name gives a salt, the structure may show the parent alone. Read-outs that look alike come from different tables or passages of the source.

One assay concerns the target MAP4K-1 enzyme (Homo sapiens, UniProt Q92918). Put plainly: FRET one step binding assay (tracer displacement). The procedure, abridged: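 TR-FRET tracer-displacement binding with 5 nM GST-tagged MAP4K-1 and 2 nM Eu-anti-GST antibody in 50 mM HEPES pH 7.5, 10 mM MgCl2, 1 mM EGTA, 0.01% Brij-35, 3% DMSO final. Compound pre-incubated 15 min on ice, then 1 h at room temperature after tracer addition. IC50 from nonlinear regression of percent-of-control dose-response.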

The next assay deals with CT26 tumor. The assay can be described thus: Anti-tumor efficacy on a syngeneic mouse colon tumor model of CT26. The assay is classed as in vivo, BALB/c mice. As for the experimental part:
Evaluation of Anti-Tumor Efficacy of Example 2 and Example 30 on a Syngeneic Mouse Colon Tumor Model of CT26.
Healthy female BALB/c mice (7 to 9 weeks old and 15 to […]) were obtained from Glenmark animal facility. Animals were group housed in polypropylene cages at a controlled temperature of 20-22° C. with a light/dark cycle of 12/12 hours. They were maintained on an ad lib standard mouse pellet diet and water and all animal experiments were performed as per protocols approved by the Institutional Animal Ethics Committee (IAEC).
CT-26 cell line was obtained from American type culture (ATCC® CRL-2638™). Cells were revived in T-flask (passage 5) with complete RPMI-1640 media and incubated at 37° C. in 5% CO2, 80% relative humidity. Cells were re-suspended, pooled and split into 1:10 ratio per flask, maintained for 3 passages and passage 8 was used for cell inoculation into animals.
The right flank region of mice was shaved by electronic shaver. Required number of CT26 cells (10 million per mL of serum free media) received on ice from cell culture lab. The mice were anesthetized by isoflurane with O2 (oxygen flow meter to 1-2 liter/min and turn isoflurane vaporizer dial to 2-3%). The cells were inoculated into the right flank region of mice at cell concentration of 1 million cells/100 μL/mouse. The inoculated mice were housed in the animal room with daily observation for any undue clinical signs.
On day 10 after cell inoculation, mice were randomized based on tumor volume and grouped into different treatment groups. The mice with tumor volume range of 57 mm^3 to 119 mm^3 were included in efficacy study. Tumor volume was measured using digital vernier caliper.
The volume calculations were obtained using the formula V(mm^3)=[L×(W×W)]×0.52 • V is tumor volume, L is tumor length and W is tumor width
Compound Preparation and Administration
0.5% v/v Tween 80 and 0.5% w/v Methyl Cellulose in distilled water was used as vehicle for oral formulation. Example 2 and Example 30 were weighed and a stock suspension of 50 mg/kg/10 mL was prepared in a mortar and pestle by adding Tween 80 (0.5% v/v), Methyl cellulose (MC, 0.5% w/v). […] The body weights were recorded on daily basis and the dosing time was maintained throughout the study. […]
Tumor volume was measured in a blinded manner throughout the study. […] The % TGI was calculated by following the formula: [1−{(Tt−T0)/(Ct−C0)}]×100. • Tt=Tumor volume of treatment group on day of tumor volume • T0=Tumor volume of treatment group on day of randomization • Ct=Tumor volume of vehicle control group on day of tumor volume • C0=Tumor volume of control group on day of randomization Sacrifice Plan […]
Tumor volume data was statistically analyzed using Two-way ANOVA followed by Bonferroni's Multiple Comparison Test. […]

MAP4K-1 enzyme, sequence (Q92918 whole entry): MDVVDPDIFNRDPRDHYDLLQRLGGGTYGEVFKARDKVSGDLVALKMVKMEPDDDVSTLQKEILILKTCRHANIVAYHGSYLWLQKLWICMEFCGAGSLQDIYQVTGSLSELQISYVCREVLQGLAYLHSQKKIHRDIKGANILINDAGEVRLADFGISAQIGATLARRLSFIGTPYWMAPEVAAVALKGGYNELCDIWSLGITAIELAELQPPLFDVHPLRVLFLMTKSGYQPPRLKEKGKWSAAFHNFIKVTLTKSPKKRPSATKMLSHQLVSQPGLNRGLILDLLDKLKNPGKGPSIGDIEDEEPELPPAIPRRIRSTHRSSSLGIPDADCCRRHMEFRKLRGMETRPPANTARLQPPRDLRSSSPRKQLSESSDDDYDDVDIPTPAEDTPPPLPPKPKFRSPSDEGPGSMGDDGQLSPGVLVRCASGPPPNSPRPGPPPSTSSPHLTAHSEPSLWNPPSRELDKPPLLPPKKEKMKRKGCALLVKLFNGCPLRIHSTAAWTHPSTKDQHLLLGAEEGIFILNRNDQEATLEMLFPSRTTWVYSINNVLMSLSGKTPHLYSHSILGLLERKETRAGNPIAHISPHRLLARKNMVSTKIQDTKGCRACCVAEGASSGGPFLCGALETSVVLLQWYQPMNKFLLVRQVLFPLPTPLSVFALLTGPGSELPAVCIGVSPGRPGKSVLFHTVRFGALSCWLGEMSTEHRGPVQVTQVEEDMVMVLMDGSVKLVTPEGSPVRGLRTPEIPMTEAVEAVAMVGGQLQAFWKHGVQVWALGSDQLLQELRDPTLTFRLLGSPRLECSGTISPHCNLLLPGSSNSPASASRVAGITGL

By IC50 is commonly meant the concentration at which inhibition is half-maximal. In general, % Inhibition refers to the change of the read-out against control, counted positive when it falls. In the case of `COc1cc2c(cc1Nc1ncc(Cl)c(Nc3ccc(OS(=O)(=O)F)cc3P(C)(C)=O)n1)C(C)N(C)CC2` (single isomer, unassigned; isomer 2) [Example 30, 4-((5-Chloro-2-((6-methoxy-1,2-dimethyl-1,2,3,4-tetrahydroisoquinolin-7-yl)amino)pyrimidin-4-yl)amino)-3-(dimethylphosphoryl)phenyl sulfofluoridate dihydrochloride (Isomer 2)], at MAP4K-1 enzyme, the 50% inhibitory concentration (IC50) was less than 50 nM. Also, the “% Inhibition at 1 μM” value on MAP4K-1 enzyme (1 μM compound, 1 µM) is 79.12%. Further, the “% Inhibition at 10 μM” value at MAP4K-1 enzyme (10 μM compound, 10 µM) stood at 82.70%. Besides, the “Tumor growth inhibition (TGI)” value in the assay with CT26 tumor (10 mg/kg p.o. QD, day 25, vs vehicle group) turned out to be 37%; in the assay on CT26 tumor (50 mg/kg p.o. QD, day 25, vs vehicle group) it was 62%.
The term inhibition denotes the share of the control response that was lost under treatment. The low end stands for a weak effect, the high end for a strong effect. `COc1cc2c(cc1Nc1ncc(Cl)c(Nc3ccc(OS(=O)(=O)F)cc3P(C)(C)=O)n1)CN(C)CC2` [Example 2, 4-((5-chloro-2-((6-methoxy-2-methyl-1,2,3,4-tetrahydroisoquinolin-7-yl)amino)pyrimidin-4-yl)amino)-3-(dimethylphosphoryl)phenyl sulfofluoridate dihydrochloride] displayed an inhibition at 1 µM at MAP4K-1 enzyme (1 μM compound) of 86%. This compound also displayed an inhibition at 10 µM on MAP4K-1 enzyme (10 μM compound) of 82.1%. At MAP4K-1 enzyme (IC50 (nM)), this compound gave a half-maximal inhibitory concentration (IC50) of less than 50 nM. Also, the “Tumor growth inhibition (TGI)” value amounted to 40% with CT26 tumor (10 mg/kg p.o. QD, day 24, vs vehicle group) and 61% in the assay with CT26 tumor (50 mg/kg p.o. QD, day 24, vs vehicle group).
In turn, `COc1cc2c(cc1Nc1ncc(Cl)c(Oc3ccccc3P(C)(C)=O)n1)CN(C)CC2` [Example 59, (2-((5-Chloro-2-((6-methoxy-2-methyl-1,2,3,4-tetrahydroisoquinolin-7-yl)amino)pyrimidin-4-yl)oxy)phenyl)dimethylphosphine oxide] registered an inhibition at 1 µM on MAP4K-1 enzyme (1 μM compound) of 83.1%. At 10 µM the inhibition at MAP4K-1 enzyme (10 μM compound) was 87.3%. Also, the IC50 on MAP4K-1 enzyme (read-out: IC50) was less than 50 nM.
The compound `COc1cc2c(cc1Nc1ncc(Cl)c(Oc3ccc(OS(=O)(=O)F)cc3P(C)(C)=O)n1)CN(C)CC2` [Example 60, 4-((5-Chloro-2-((6-methoxy-2-methyl-1,2,3,4-tetrahydroisoquinolin-7-yl)amino)pyrimidin-4-yl)oxy)-3-(dimethylphosphoryl)phenylsulfofluoridate dihydrochloride] yielded an inhibition at 1 µM on MAP4K-1 enzyme (1 μM compound) of 70.5%. At MAP4K-1 enzyme (10 μM compound), this compound returned an inhibition at 10 µM of 83.4%. In addition, the IC50 at MAP4K-1 enzyme (IC50 (nM)) is 100 to 500 nM.
`CN1CCc2cc(O)c(Nc3ncc(Cl)c(Nc4ccc(OS(=O)(=O)F)cc4P(C)(C)=O)n3)cc2C1` [Example 61, 4-((5-Chloro-2-((6-hydroxy-2-methyl-1,2,3,4-tetrahydroisoquinolin-7-yl)amino)pyrimidin-4-yl)amino)-3-(dimethylphosphoryl)phenylsulfofluoridate dihydrochloride] had an inhibition at 1 µM on MAP4K-1 enzyme (1 μM compound) of 89.6%. Further, 10 µM produced 89.7% inhibition on MAP4K-1 enzyme (10 μM compound). The same compound showed a half-maximal inhibitory concentration (IC50) at MAP4K-1 enzyme (IC50 (nM)) of less than 50 nM.
